# Reference: ChEMBL document CHEMBL5236565, “Design, synthesis, and biological evaluation of novel 2'-methyl-2'-fluoro-6-methyl-7-alkynyl-7-deazapurine nucleoside analogs as anti-Zika virus agents” (Eur J Med Chem, 2022)
# Tested on: Zika virus
# Assay: Antiviral activity against ZIKV infected in human A549 cells at 50 uM by microtiter assay relative to control
# Format: functional
row,SMILES,Activity [%]
1,Cc1ncnc2c1c(C1CC1c1ccccc1)cn2[C@@H]1O[C@H](CO)[C@@H](O)[C@@]1(C)F (stereo not given in full),<10
2,Cc1ncnc2c1c(C#Cc1cccnc1)cn2[C@@H]1O[C@H](CO)[C@@H](O)[C@@]1(C)F,<10
3,Cc1ccnc(C#Cc2cn([C@@H]3O[C@H](CO)[C@@H](O)[C@@]3(C)F)c3ncnc(C)c23)c1,<10
4,Cc1ccc(C#Cc2cn([C@@H]3O[C@H](CO)[C@@H](O)[C@@]3(C)F)c3ncnc(C)c23)s1,43.9
5,Cc1ncnc2c1c(C#Cc1ccccc1C(F)(F)F)cn2[C@@H]1O[C@H](CO)[C@@H](O)[C@@]1(C)F,34.4
6,Cc1ncnc2c1c(C#CC(C)(C)C)cn2[C@@H]1O[C@H](CO)[C@@H](O)[C@@]1(C)F,22.4
7,Cc1ncnc2c1c(C#Cc1ccccn1)cn2[C@@H]1O[C@H](CO)[C@@H](O)[C@@]1(C)F,18.8
8,Cc1ncnc2c1c(-c1ccccc1)cn2[C@@H]1O[C@H](CO)[C@@H](O)[C@@]1(C)F,<10
9,Cc1ncnc2c1c(-c1ccc(-c3ccccc3)cc1)cn2[C@@H]1O[C@H](CO)[C@@H](O)[C@@]1(C)F,29.9
10,CC#Cc1cn([C@@H]2O[C@H](CO)[C@@H](O)[C@@]2(C)F)c2ncnc(C)c12,<10
11,Cc1ncnc2c1c(/C=C/c1ccccc1)cn2[C@@H]1O[C@H](CO)[C@@H](O)[C@@]1(C)F,<10
12,C#Cc1cn([C@@H]2O[C@H](CO)[C@@H](O)[C@@]2(C)F)c2ncnc(C)c12,<10
13,Cc1cccnc1C#Cc1cn([C@@H]2O[C@H](CO)[C@@H](O)[C@@]2(C)F)c2ncnc(C)c12,<10
14,Cc1ncnc2c1c(C#CC1CC1)cn2[C@@H]1O[C@H](CO)[C@@H](O)[C@@]1(C)F,<10
15,Cc1cccc(C#Cc2cn([C@@H]3O[C@H](CO)[C@@H](O)[C@@]3(C)F)c3ncnc(C)c23)n1,<10
16,Cc1ncnc2c1c(C#Cc1nccs1)cn2[C@@H]1O[C@H](CO)[C@@H](O)[C@@]1(C)F,<10
17,Cc1ccsc1C#Cc1cn([C@@H]2O[C@H](CO)[C@@H](O)[C@@]2(C)F)c2ncnc(C)c12,40.2
18,Cc1ncnc2c1c(C#Cc1ccc(F)cc1)cn2[C@@H]1O[C@H](CO)[C@@H](O)[C@@]1(C)F,37.5
19,Cc1ncnc2c1c(C#Cc1cccc(F)c1)cn2[C@@H]1O[C@H](CO)[C@@H](O)[C@@]1(C)F,<10
20,Cc1ncnc2c1c(C#Cc1ncccn1)cn2[C@@H]1O[C@H](CO)[C@@H](O)[C@@]1(C)F,<10
